Patent publication US10577332B2, “Tetrazole derivatives” (Hoffmann-La Roche Inc., priority 2015, dated 2020)

Columns and labels:
human EAAT3 = target: T1, human EAAT3 (Homo sapiens, UniProt P43005); assay: FLIPR Membrane Potential (FMP) assay; type: cell-based; settings: HEK-293 cells stably expressing human EAAT3; antagonist applied 15 min before L-glutamate at EC80; Kb by Cheng-Prusoff from IC50
T1 construct: expressed in transfected cells
T1 sequence (P43005 1-524): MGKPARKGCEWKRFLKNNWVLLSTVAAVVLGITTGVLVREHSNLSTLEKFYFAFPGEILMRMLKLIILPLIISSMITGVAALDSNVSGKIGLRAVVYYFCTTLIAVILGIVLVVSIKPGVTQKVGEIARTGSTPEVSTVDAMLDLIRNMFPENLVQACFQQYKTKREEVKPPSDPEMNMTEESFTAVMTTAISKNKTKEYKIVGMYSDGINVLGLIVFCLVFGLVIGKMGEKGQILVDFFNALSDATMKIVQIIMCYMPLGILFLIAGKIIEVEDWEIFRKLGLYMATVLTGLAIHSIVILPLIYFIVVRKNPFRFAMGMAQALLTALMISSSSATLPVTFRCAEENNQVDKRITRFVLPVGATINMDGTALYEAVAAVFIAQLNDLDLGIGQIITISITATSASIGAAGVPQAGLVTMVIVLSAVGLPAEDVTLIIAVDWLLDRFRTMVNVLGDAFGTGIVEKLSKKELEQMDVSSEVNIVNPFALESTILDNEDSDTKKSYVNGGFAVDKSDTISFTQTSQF
Description: The FLIPR Membrane Potential (FMP) Assay
HEK-293 cells stably expressing human EAAT3 were seeded at 55 000 cells/well in growth medium (DMEM glutamate free (Invitrogen 11960-044), 1% Pen Strep (10 ml/l GIBCO BRL No 15140-023), 10% FCS non dialysed heat inactivated, 5 mg/l puromycin) in poly-D-lysine treated 96-well black microtiter plates with clear-bottom. After 24 h, the growth medium was removed and 100 μl/well of Krebs buffer (140 mM NaCl, 4.7 mM KCl, 2.5 mM CaCl2, 1.2 mM MgCl2, 11 mM HEPES, 10 mM D-glucose, pH=7.4) added. The cells were then loaded by adding 100 μl/well FMP assay dye (FLIPR Membrane Potential assay reagent, Molecular Devices). The 96-well plates were then incubated at 37° C. for 1 h. The depolarization of the cells will cause more dye to enter in the cells, where it will bind to intracellular proteins and lipids and cause an increase in the fluorescence signal. Antagonist potency at human EAAT3 was determined by using L-glutamate as agonist at a concentration which gives 80% of the maximum response. The antagonists were applied 15 min before the application of the agonist L-glutamate. The assays were performed at room temperature and measurements done by using a Fluorometric Imaging Plate Reader (FLIPR, Molecular Devices) and filter #2. Responses were measured as peak increase in fluorescence minus basal (i.e. fluorescence without addition of L-glutamate). Kb was determined using the Cheng-Prusoff equation Kb=IC50/[1+(A/EC50)], where IC50 is the concentration of the antagonist producing 50% inhibition, A is the concentration of the agonist against which the IC50 is being determined (at EC80) and EC50 is the concentration of the agonist producing 50% […].

Kb (human EAAT3) [nM]	melting point [°C]	Compound
460	146.5	CC1(NC(=O)c2cc(-c3ccc(F)cc3)cc(-n3cnnn3)c2)CCS(=O)(=O)C1 (racemic) [Example 4, (RS)-3-(4-Fluorophenyl)-N-(3-methyl-1,1-dioxothiolan-3-yl)-5-(tetrazol-1-yl)-benzamide]
630	204	CC1(NC(=O)c2cc(-c3ccc(Cl)cc3)cc(-n3cnnn3)c2)CCS(=O)(=O)C1 (racemic) [Example 16, (RS)-3-(4-Chlorophenyl)-N-(3-methyl-1,1-dioxothiolan-3-yl)-5-(tetrazol-1-yl)-benzamide]
250	112	Cc1ccc(-c2cc(C(=O)NC3(C)CCS(=O)(=O)C3)cc(-n3nnnc3C(C)C)c2)cc1 (racemic) [Example 17, (RS)-N-(3-methyl-1,1-dioxothiolan-3-yl)-3-(4-methylphenyl)-5-(5-propan-2-yltetrazol-1-yl)-benzamide]
380	69	Cc1ccc(-c2cc(C(=O)NC3(C)CCS(=O)(=O)C3)cc(-n3nnnc3C)c2)cc1 (racemic) [Example 24, (RS)-N-(3-Methyl-1,1-dioxothiolan-3-yl)-3-(4-methylphenyl)-5-(5-methyltetrazol-1-yl)-benzamide]
300	130.5	Cc1ccc(-c2cc(C(=O)NC3(C)CCS(=O)(=O)C3)cc(-n3nnnc3C3CC3)c2)cc1 (racemic) [Example 33, (RS)-3-(5-Cyclopropyltetrazol-1-yl)-N-(3-methyl-1,1-dioxothiolan-3-yl)-5-(4-methylphenyl)-benzamide]
270	122	CCc1nnnn1-c1cc(C(=O)NC2(C)CCS(=O)(=O)C2)cc(-c2ccc(C)cc2)c1 (racemic) [Example 34, (RS)-3-(5-Ethyltetrazol-1-yl)-N-(3-methyl-1,1-dioxothiolan-3-yl)-5-(4-methylphenyl)-benzamide]
260	73	CC(C)c1nnnn1-c1cc(C(=O)NC2(C)CCS(=O)(=O)C2)cc(-c2ccc(Cl)cc2)c1 (racemic) [Example 45, (RS)-3-(4-Chlorophenyl)-N-(3-methyl-1,1-dioxothiolan-3-yl)-5-(5-propan-2-yltetrazol-1-yl)benzamide]
330	117	CC(C)c1nnnn1-c1cc(C(=O)NC2(C)CCS(=O)(=O)C2)cc(-c2ccc(C(F)(F)F)cc2)c1 (racemic) [Example 49, (RS)—N-(3-methyl-1,1-dioxothiolan-3-yl)-3-(5-propan-2-yltetrazol-1-yl)-5-[4-(trifluoromethyl)phenyl]benzamide]
350	126	CC1(NC(=O)c2cc(-c3ccc(Cl)cc3)cc(-n3nnnc3C3CC3)c2)CCS(=O)(=O)C1 (racemic) [Example 57, (RS)-3-(4-Chlorophenyl)-5-(5-cyclopropyltetrazol-1-yl)-N-(3-methyl-1,1-dioxothiolan-3-yl)-benzamide]
650	112.5	CC(C)c1nnnn1-c1cc(C(=O)NC2(C)CCS(=O)(=O)C2)cc(-c2ccc(F)cc2)c1 (racemic) [Example 63, (RS)-3-(4-Fluorophenyl)-N-(3-methyl-1,1-dioxothiolan-3-yl)-5-(5-propan-2-yltetrazol-1-yl)-benzamide]
360	155.5	Cc1nnnn1-c1cc(C(=O)NC2(C)CCS(=O)(=O)C2)cc(-c2ccc(Cl)cc2)c1 (racemic) [Example 65, (RS)-3-(4-Chlorophenyl)-N-(3-methyl-1,1-dioxothiolan-3-yl)-5-(5-methyltetrazol-1-yl)-benzamide]
250	120	CC1(NC(=O)c2cc(-c3ccc(F)cc3)cc(-n3nnnc3C3CC3)c2)CCS(=O)(=O)C1 (racemic) [Example 77, (RS)-3-(5-Cyclopropyltetrazol-1-yl)-5-(4-fluorophenyl)-N-(3-methyl-1,1-dioxothiolan-3-yl)-benzamide]
290	117	Cc1nnnn1-c1cc(C(=O)NC2(C)CCS(=O)(=O)C2)cc(-c2ccc(F)cc2)c1 (racemic) [Example 87, (RS)-3-(4-Fluorophenyl)-N-(3-methyl-1,1-dioxothiolan-3-yl)-5-(5-methyltetrazol-1-yl)-benzamide]
250	187	CC1(NC(=O)c2cc(-c3ccc(Cl)cc3)cc(-n3nnnc3C(C)(C)C)c2)CCS(=O)(=O)C1 (racemic) [Example 89, (RS)-3-(5-tert-Butyltetrazol-1-yl)-5-(4-chlorophenyl)-N-(3-methyl-, 1-dioxothiolan-3-yl)benzamide]
350	258.5	CC1(NC(=O)c2cc(-c3ccc(F)cc3)cc(-n3nnnc3C(C)(C)C)c2)CCS(=O)(=O)C1 (racemic) [Example 95, (RS)-3-(5-tert-Butyltetrazol-1-yl)-5-(4-fluorophenyl)-N-(3-methyl-, 1-dioxothiolan-3-yl)-benzamide]
145	200	CCC(C)(C)NC(=O)c1cc(-c2ccc(F)cc2)cc(-n2cnnn2)c1 [Example 1, 3-(4-Fluorophenyl)-N-(2-methylbutan-2-yl)-5-(tetrazol-1-yl)-benzamide]
220	168	CCC(C)(C)NC(=O)c1cc(-c2ccc(C(F)(F)F)cc2)cc(-n2cnnn2)c1 [Example 2, N-(2-Methylbutan-2-yl)-3-(tetrazol-1-yl)-5-[4-(trifluoromethyl)phenyl]-benzamide]
470	108	CC(C)(C)NC(=O)c1cc(-c2ccc(C(F)(F)F)cc2)cc(-n2cnnn2)c1 [Example 3, N-tert-Butyl-3-(tetrazol-1-yl)-5-[4-(trifluoromethyl)phenyl]-benzamide]
250	161	CCC(C)(C)NC(=O)c1cc(-c2ccc(C)c(F)c2)cc(-n2cnnn2)c1 [Example 5, 3-(3-Fluoro-4-methylphenyl)-N-(2-methylbutan-2-yl)-5-(tetrazol-1-yl)-benzamide]
410	120	CCC(C)(C)NC(=O)c1cc(-c2ccc(F)c(C)c2)cc(-n2cnnn2)c1 [Example 6, 3-(4-Fluoro-3-methylphenyl)-N-(2-methylbutan-2-yl)-5-(tetrazol-1-yl)-benzamide]
610	–	CCC(C)(C)NC(=O)c1cc(-c2ccc(C(C)C)cc2)cc(-n2cnnn2)c1 [Example 8, N-(2-Methylbutan-2-yl)-3-(4-propan-2-ylphenyl)-5-(tetrazol-1-yl)-benzamide]
540	–	CCC(C)(C)NC(=O)c1cc(-c2ccc(C3CC3)cc2)cc(-n2cnnn2)c1 [Example 9, 3-(4-Cyclopropylphenyl)-N-(2-methylbutan-2-yl)-5-(tetrazol-1-yl)-benzamide]
430	–	Cc1ccc(-c2cc(C(=O)NC(C)(C)CO)cc(-n3nnnc3C3CC3)c2)cc1 [Example 32, 3-(5-Cyclopropyltetrazol-1-yl)-N-(1-hydroxy-2-methylpropan-2-yl)-5-(4-methylphenyl)-benzamide]
240	–	CCC(C)(C)NC(=O)c1cc(-c2ccc(Cl)c(F)c2)cc(-n2cnnn2)c1 [Example 37, 3-(4-Chloro-3-fluorophenyl)-N-(2-methylbutan-2-yl)-5-(tetrazol-1-yl)-benzamide]
260	–	CC(C)c1nnnn1-c1cc(C(=O)NC(C)(C)CO)cc(-c2ccc(Cl)cc2)c1 [Example 50, 3-(4-Chlorophenyl)-N-(1-hydroxy-2-methylpropan-2-yl)-5-(5-propan-2-yltetrazol-1-yl)-benzamide]
370	–	CC(C)c1nnnn1-c1cc(C(=O)NC(C)(C)CO)cc(-c2ccc(C(F)(F)F)cc2)c1 [Example 51, N-(1-Hydroxy-2-methylpropan-2-yl)-3-(5-propan-2-yltetrazol-1-yl)-5-[4-(trifluoromethyl)-phenyl]-benzamide]
150	–	N-(2-methylbutan-2-yl)-3-(4-methylphenyl)-5-(5-methyltetrazol-1-yl)-benzamide [Example 22]
